Data on one compound can be found in publication PMC12115184, “Metformin-Induced Apoptosis Is Mediated Through Mitochondrial VDAC1” (Pharmaceuticals, 2025).

The target in this assay is T1, VDAC1 (Rattus norvegicus, UniProt Q9Z2L0).
T1 construct: VDAC1 purified from rat liver mitochondria (channel conductance)
Description: planar lipid bilayer conductance of reconstituted purified VDAC1; MST with N-terminal peptide. The format is biochemical.

Structures are written as SMILES.

T1 sequence (Q9Z2L0 2-283): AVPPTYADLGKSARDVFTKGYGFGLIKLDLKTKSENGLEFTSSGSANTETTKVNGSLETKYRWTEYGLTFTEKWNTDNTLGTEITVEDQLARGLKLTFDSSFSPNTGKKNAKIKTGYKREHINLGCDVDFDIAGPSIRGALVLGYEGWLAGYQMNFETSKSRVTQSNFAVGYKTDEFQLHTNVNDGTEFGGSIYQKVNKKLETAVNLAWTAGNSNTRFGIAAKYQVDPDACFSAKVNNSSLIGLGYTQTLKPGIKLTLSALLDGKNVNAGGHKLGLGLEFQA

In the case of `CN(C)C(=N)N=C(N)N` [metformin, 3-(diaminomethylidene)-1,1-dimethylguanidine], the “planar lipid bilayer conductance of reconstituted purified VDAC1; MST with N-ter” value was “Metformin reduced VDAC1 conductance only after the channel was exposed to a high voltage step”.
